Reference: US6124136A, “Method of monitoring compliance with methadone treatment program” (U. D. Testing, Inc., priority 1993, dated 2000)
Several values for one entry are separate records, joined by “and”; a condition that tells them apart may be missing. Equal values may be shown once.

Key:
[1] = Clinical course of migraine/headache in chronic pain patients (Cases #1 and #2); format: in vivo, human
[2] = Plasma methadone concentration versus daily oral methadone dose (FIG. 6, 8300 urine samples from 150 patients); conditions: human, 70 mg/day
[3] = Urinary parameter-normalized urine methadone concentration, nu
[4] = test system: mu-receptor subfamily of opioid cell membrane binding/transduction sites; conditions: cited from earlier work
[5] = Renal clearance / renal excretion of methadone from timed urine collections; conditions: as a function of urine volume production rate; 12 control subjects
[6] = Plasma methadone concentration, p, calculated from spot urine (urine methadone, pH and specific gravity); conditions: patient one, Tables 3 and 4, barbiturate-containing compounds discontinued

Structure (SMILES): Oc1ccc2c3c1O[C@H]1[C@@H](O)CC[C@@]4(O)[C@@H](C2)N(CC2CCC2)CC[C@]314 [nalbuphine]
- control of pain ([1]; patient one, self-administered IM, before methadone): failure

Structure (SMILES): CCC(=O)C(CC(C)N(C)C)(c1ccccc1)c1ccccc1 (centres unmarked) [methadone]
- stress-related headaches ([1]; patient one, 130 mg per day): slowly decreasing in severity and frequency
- migraines ([1]; patient one, stabilized on 130 mg per day, plasma level above 135 ng/ml): ceased completely
- migraine frequency and severity ([1]; patient two, gradual titration to 35 mg of methadone): slowly decayed in frequency and severity
- concentration at 24 h [2]: 200 ng/mL
- urinary parameter-normalized urine methadone concentration, nu ([3]; Table 1, compliant patient, dose 60): 7448 and 9473
- urinary parameter-normalized urine methadone concentration, nu, mean ([3]; Table 1, mean of 12 tests, dose 60-70): 7427
- urinary parameter-normalized urine methadone concentration, nu, mean ([3]; Table 2, patient two, mean of 12 tests, dose 45): 17936
- urinary parameter-normalized urine methadone concentration, nu ([3]; Table 3, patient one (prior barbiturate use), 1991, dose 50): 2924
- urinary parameter-normalized urine methadone concentration, nu ([3]; Table 3, patient one (prior barbiturate use), 1991, dose 65): 1367 and 911
- urinary parameter-normalized urine methadone concentration, nu ([3]; Table 3, patient one (prior barbiturate use), 1991, dose 80): 1070
- urinary parameter-normalized urine methadone concentration, nu, mean ([3]; Table 3, patient one, mean of 12 tests, dose 40-100): 1591
- urinary parameter-normalized urine methadone concentration, nu ([3]; Table 4, patient one, barbiturates discontinued, 1992, dose 110): 6580 and 6703 and 10880 and 6025
- urinary parameter-normalized urine methadone concentration, nu ([3]; Table 4, patient one, barbiturates discontinued, 1992, dose 120): 8970 and 6778 and 8074 and 11966 and 6031
- urinary parameter-normalized urine methadone concentration, nu ([3]; Table 4, patient one, barbiturates discontinued, 1992, dose 130): 7728 and 5944 and 5117
- urinary parameter-normalized urine methadone concentration, nu, mean ([3]; Table 4, patient one, mean of 12 tests, dose 110-130): 7566
- urinary parameter-normalized urine methadone concentration, nu, mean ([3]; Table 6, Case #4, mean, dose 120-140): 6874
- Pred (flag: nu outside acceptable statistical range) ([3]; Table 6, Case #4, dose 140): High
- urinary parameter-normalized urine methadone concentration, nu, mean ([3]; Table 7, Case #5, mean of 13 tests, dose 130): 14502
- Pred (flag: nu outside acceptable statistical range) ([3]; Table 7, Case #5, dose 130): LOW and HIGH
- action at mu-receptor [4]: potent, and nearly pure (no interfering metabolites), agonist
- renal excretion rate during a typical day [5]: relatively constant
- plasma methadone levels over time [6]: increased in this patient over time
